{
  "source": "the SangsterLogP compilation",
  "key": {"[1]": {"experiment": "method code SF-AS, from DOI: 10.1002/jps.2600710122"}, "[2]": {"experiment": "method code SF-AS, from DOI: 10.1016/0378-5173(80)90061-7"}, "[3]": {"experiment": "method code SF-AS, from Lee, B.; Shin, J.; Lim, M.; Jang, T.; Park, J.; Kim, K.; Kang, W. (1997). Partition Property of 5-Nitrothiopyrimidine Nucleoside. Bull Korean Chem Soc, 18(7)734-736.", "details": "pH 7.0"}, "[4]": {"experiment": "method code HPLC, from DOI: 10.1016/j.ejmech.2015.05.022, PMID: 26005028", "details": "pH 7.1"}, "[5]": {"experiment": "not given", "remark": "listed apart in the source"}, "[6]": {"experiment": "not given", "remark": "listed apart in the source"}, "[7]": {"experiment": "method code SF-GLC, from DOI: 10.1016/0166-445x(88)90052-5"}, "[8]": {"experiment": "method code SF-AS, from DOI: 10.1002/etc.5620181211"}, "[9]": {"experiment": "method code SF-AS, from DOI: 10.1248/cpb.40.925"}, "[10]": {"experiment": "method code SF-HPLC, from DOI: 10.1021/jm00169a024, PMID: 2194033", "details": "pH 7.4"}, "[11]": {"experiment": "method code HPLC, from DOI: 10.1016/j.bmcl.2004.01.062, PMID: 15026043", "details": "pH 5.5"}, "[12]": {"experiment": "not given", "remark": "listed apart in the source"}, "[13]": {"experiment": "not given", "remark": "listed apart in the source"}, "[14]": {"experiment": "not given", "remark": "listed apart in the source"}, "[15]": {"experiment": "not given", "remark": "listed apart in the source"}, "[16]": {"experiment": "from Wang, L.; Xu, L.; Xu, O.; Tian, L.; Zheng, Z. (1989). Simultaneous determination of partition coefficients and acid dissociation constants of some organic dibasic acids and diacidic bases in the …"}, "[17]": {"experiment": "not given", "remark": "listed apart in the source"}, "[18]": {"experiment": "not given", "remark": "listed apart in the source"}, "[19]": {"experiment": "method code SF-AS, from DOI: 10.1016/j.ejmech.2011.02.056, PMID: 21420207"}, "[20]": {"experiment": "method code SF-RC, from DOI: 10.1016/s0969-8051(01)00233-5, PMID: 11518650"}, "[21]": {"experiment": "not given", "remark": "listed apart in the source"}, "[22]": {"experiment": "not given", "remark": "listed apart in the source"}, "[23]": {"experiment": "method code SF-HPLC, from DOI: 10.1016/0378-5173(91)90200-8", "details": "pH 7.4"}, "[24]": {"experiment": "method code SF-AS, from DOI: 10.1021/jm0104926, PMID: 11960499"}, "[25]": {"experiment": "not given", "remark": "listed apart in the source"}, "[26]": {"experiment": "method code SF-CR+AS, from DOI: 10.1007/bf00500994, PMID: 4267539", "details": "pH 7.4"}, "[27]": {"experiment": "method code SF-HPLC, from DOI: 10.1016/0045-6535(86)90532-1", "details": "pH 6.5"}},
  "data": [
    {"smiles": "CC(=O)Nc1n[nH]c(NC(C)=O)n1", "values": [
      {"measurement": "logP", "setting": "[1]", "result": -1.01}
    ]},
    {"smiles": "O=C1CCCO1", "values": [
      {"measurement": "logP", "setting": "[2]", "result": -0.31}
    ]},
    {"smiles": "O=[N+]([O-])c1c[nH]c(=S)[nH]c1=S", "values": [
      {"measurement": "logD", "setting": "[3]", "result": 0.52}
    ]},
    {"smiles": "COC(=O)CBr", "values": [
      {"measurement": "logD", "setting": "[4]", "result": 0.77}
    ]},
    {"smiles": "CC(=O)OCCCCOC(C)=O", "values": [
      {"measurement": "logP", "result": 0.01}
    ]},
    {"smiles": "ClC(Br)Br", "values": [
      {"measurement": "logP", "setting": "[5]", "result": 2.24}
    ]},
    {"smiles": "CCC#N", "values": [
      {"measurement": "logP", "setting": "[6]", "result": 0.1}
    ]},
    {"smiles": "CCCCC1CO1", "note": "(stereo not drawn)", "values": [
      {"measurement": "logP", "setting": "[7]", "result": 1.95}
    ]},
    {"smiles": "C(=C\\c1ccccn1)/c1ccccc1", "values": [
      {"measurement": "logP", "setting": "[8]", "result": 1.96}
    ]},
    {"smiles": "COC(=O)c1ccoc1", "values": [
      {"measurement": "logP", "setting": "[9]", "result": 1.28}
    ]},
    {"smiles": "CCN1CC(C(O)[C@H](CC2CCCCC2)NC(=O)[C@H](Cc2cnc[nH]2)NC(=O)[C@@H](Cc2ccc(OC)cc2)NC(=O)N2CCOCC2)OC1=O", "note": "(stereo partly drawn)", "values": [
      {"measurement": "logD", "setting": "[10]", "result": 2.11}
    ]},
    {"smiles": "Nc1cccnc1Cl", "values": [
      {"measurement": "logP", "setting": "[8]", "result": 0.04}
    ]},
    {"smiles": "CN(C)C(=O)Oc1ccc(CC(NC(=O)C2N(S(=O)(=O)c3cnn(C)c3)CSC2(C)C)C(=O)OCC(C)(C)C)cc1", "note": "(stereo not drawn)", "values": [
      {"measurement": "logD", "setting": "[11]", "result": 3.42}
    ]},
    {"smiles": "Cc1c(-c2cnccn2)ssc1=S", "values": [
      {"measurement": "logP", "setting": "[12]", "result": 2.79}
    ]},
    {"smiles": "CCN(CC)C(=O)SCc1ccc(Cl)cc1", "values": [
      {"measurement": "logP", "setting": "[13]", "result": 3.78}
    ]},
    {"smiles": "O=Cc1ccncc1", "values": [
      {"measurement": "logP", "setting": "[14]", "result": 0.23}
    ]},
    {"smiles": "Nc1c([N+](=O)[O-])ccc2ncccc12", "values": [
      {"measurement": "logP", "setting": "[15]", "result": 1.61}
    ]},
    {"smiles": "Cn1cccc1", "values": [
      {"measurement": "logP", "setting": "[9]", "result": 1.15}
    ]},
    {"smiles": "Nc1nc(NC(=O)C(F)(F)C(F)(F)C(F)(F)F)n[nH]1", "values": [
      {"measurement": "logP", "setting": "[1]", "result": 1.54}
    ]},
    {"smiles": "O=C(O)CCC(=O)O", "values": [
      {"measurement": "logP", "setting": "[16]", "result": -0.61}
    ]},
    {"smiles": "O=C(O)c1ccccn1", "values": [
      {"measurement": "logP", "setting": "[17]", "result": -1}
    ]},
    {"smiles": "ClC(Cl)Br", "values": [
      {"measurement": "logP", "setting": "[5]", "result": 2.1}
    ]},
    {"smiles": "CO[C@@H]1[C@@H](O[C@@H]2O[C@H](C)[C@@H](O)[C@H](N(C)C)[C@H]2O)[C@@H](CC=O)C[C@@H](C)C(=O)/C=C\\[C@H]2O[C@H]2C[C@@H](C)OC(=O)C[C@H]1OC(C)=O", "values": [
      {"measurement": "logP", "setting": "[18]", "result": 0.3}
    ]},
    {"smiles": "CCCCCCCCCCCC(=O)N[C@H]1C[C@H](O[C@H]2C[C@](O)(C(=O)CO)Cc3c(O)c4c(c(O)c32)C(=O)c2c(OC)cccc2C4=O)O[C@@H](C)[C@H]1O", "values": [
      {"measurement": "logP", "setting": "[19]", "result": 1.96}
    ]},
    {"smiles": "Cc1cc(O)no1", "values": [
      {"measurement": "logP", "setting": "[13]", "result": 0.26}
    ]},
    {"smiles": "CCN(CC)CCF", "values": [
      {"measurement": "logP", "setting": "[20]", "result": 0.94}
    ]},
    {"smiles": "CCCCCCCCC(C)=O", "values": [
      {"measurement": "logP", "setting": "[21]", "result": 3.78}
    ]},
    {"smiles": "CCN1CC(C(O)[C@H](CC2CCCCC2)NC(=O)[C@H](Cc2cnc[nH]2)NC(=O)[C@@H](CC(=O)N(C)CCOCOC)Cc2ccccc2)OC1=O", "note": "(stereo partly drawn)", "values": [
      {"measurement": "logD", "setting": "[10]", "result": 2.49}
    ]},
    {"smiles": "O=c1[nH]cnc2nc[nH]c12", "values": [
      {"measurement": "logP", "setting": "[22]", "result": -0.96}
    ]},
    {"smiles": "CCOC(=O)CC(Cc1cncn1C)C(CC)C(=O)OCc1ccc(COC(=O)C(CC)C(CC(=O)OCC)Cc2cncn2C)cc1", "note": "(stereo not drawn)", "values": [
      {"measurement": "logD", "setting": "[23]", "result": 4.08}
    ]},
    {"smiles": "CCN1CC(C(O)[C@H](CC2CCCCC2)NC(=O)[C@H](Cc2cnc[nH]2)NC(=O)[C@@H](CC(=O)N(C)CCOC)Cc2ccccc2)OC1=O", "note": "(stereo partly drawn)", "values": [
      {"measurement": "logD", "setting": "[10]", "result": 2.45}
    ]},
    {"smiles": "CN(C)CCF", "values": [
      {"measurement": "logP", "setting": "[20]", "result": 0.36}
    ]},
    {"smiles": "FC(Cl)C(F)(F)C1(Br)N=N1", "note": "(stereo not drawn)", "values": [
      {"measurement": "logP", "setting": "[24]", "result": 2.18}
    ]},
    {"smiles": "CCC(C)O", "note": "(stereo not drawn)", "values": [
      {"measurement": "logP", "setting": "[25]", "result": 0.81}
    ]},
    {"smiles": "O=CC(Cl)(Cl)Cl", "values": [
      {"measurement": "logD", "setting": "[26]", "result": 1.61}
    ]},
    {"smiles": "OCC(Cl)(Cl)Cl", "values": [
      {"measurement": "logD", "setting": "[26]", "result": 1.42}
    ]},
    {"smiles": "S=C1NCCN1", "values": [
      {"measurement": "logD", "setting": "[27]", "result": -0.66}
    ]},
    {"smiles": "FC(F)(C(Cl)Br)C1N=N1", "note": "(stereo not drawn)", "values": [
      {"measurement": "logP", "setting": "[24]", "result": 1.9}
    ]}
  ]
}
